Tests used:
Assay type in all cases: in vivo
[1] = system: Myzus persicae (Green peach aphid); assay: Myzus persicae (Green peach aphid) mortality, sprayed sunflower leaf discs; conditions: foliar, 144 h, 200 ppm spray on sunflower leaf discs, mixed ages, mortality 6 DAT
[2] = system: Plutella xylostella (Diamond back moth); assay: Plutella xylostella (Diamond back moth) larval mortality, artificial diet in 24-well MTP; conditions: 144 h, application rate 200 ppm (concentration in well 18 ppm), L2 larvae, larval mortality after 6 days
[3] = system: Spodoptera littoralis (Egyptian cotton leafworm); assay: Spodoptera littoralis (Egyptian cotton leafworm) mortality, sprayed cotton leaf discs; conditions: foliar, 72 h, 200 ppm spray on cotton leaf discs, L1 larvae, mortality 3 DAT
[4] = system: Myzus persicae (Green peach aphid); assay: Myzus persicae (Green peach aphid) mortality, test compounds mixed with Sucrose solution under Parafilm; conditions: 120 h, 12.5 ppm in Sucrose solution, infested pea seedlings on Parafilm, mortality 5 days after infestation
[5] = system: Diabrotica balteata (Corn root worm); assay: Diabrotica balteata (Corn root worm) larval mortality, artificial diet in 24-well MTP; conditions: 120 h, application rate 200 ppm (concentration in well 18 ppm), L2 larvae, larval mortality after 5 days
[6] = system: Thrips tabaci (Onion thrips); assay: Thrips tabaci (Onion thrips) mortality, sprayed sunflower leaf discs; conditions: foliar, 168 h, 200 ppm spray on sunflower leaf discs, mixed ages, mortality after 7 days
[7] = system: Tetranychus urticae (Two-spotted spider mite); assay: Tetranychus urticae (Two-spotted spider mite) mortality, sprayed bean leaf discs; conditions: foliar, 192 h, 200 ppm spray on bean leaf discs, mixed ages, egg, larval and adult mortality after 8 days

O=C(Nc1cccc(C(=O)Nc2c(Br)cc(C(F)(C(F)(F)F)C(F)(F)F)cc2OC(F)F)c1F)c1ccncc1 [Compound 1]
≥ 80%: pest or weed control at 200 ppm [1] | pest or weed control at 200 ppm [2] | pest or weed control at 200 ppm [3] | pest or weed control at 12.5 ppm [4] | pest or weed control at 200 ppm [5] | pest or weed control at 200 ppm [6] | pest or weed control at 200 ppm [7]

CCN(C(=O)c1ccncc1)c1cccc(C(=O)Nc2c(Br)cc(C(F)(C(F)(F)F)C(F)(F)F)cc2OC(F)F)c1F [Compound 2, N-[3-[[2-bromo-6-(difluoromethoxy)-4-[1,2,2,2-tetrafluoro-1-(trifluoromethyl)ethyl]phenyl]carbamoyl]-2-fluoro-phenyl]-N-ethyl-pyridine-4-carboxamide]
≥ 80%: pest or weed control at 200 ppm [1] | pest or weed control at 200 ppm [2] | pest or weed control at 200 ppm [3] | pest or weed control at 12.5 ppm [4] | pest or weed control at 200 ppm [5] | pest or weed control at 200 ppm [6] | pest or weed control at 200 ppm [7]

COc1c(NC(=O)c2ccncc2)cccc1C(=O)Nc1c(Br)cc(C(F)(C(F)(F)F)C(F)(F)F)cc1OC(F)F [Compound 3]
≥ 80%: pest or weed control at 200 ppm [1] | pest or weed control at 200 ppm [2] | pest or weed control at 200 ppm [3] | pest or weed control at 12.5 ppm [4] | pest or weed control at 200 ppm [5] | pest or weed control at 200 ppm [6] | pest or weed control at 200 ppm [7]

CCN(C(=O)c1ccncc1)c1cccc(C(=O)Nc2c(Br)cc(C(F)(C(F)(F)F)C(F)(F)F)cc2OC(F)F)c1OC [Compound 4]
≥ 80%: pest or weed control at 200 ppm [1] | pest or weed control at 200 ppm [2] | pest or weed control at 200 ppm [3] | pest or weed control at 12.5 ppm [4] | pest or weed control at 200 ppm [5] | pest or weed control at 200 ppm [6] | pest or weed control at 200 ppm [7]

N#Cc1ccc(C(=O)Nc2cccc(C(=O)Nc3c(Br)cc(C(F)(C(F)(F)F)C(F)(F)F)cc3OC(F)F)c2F)cc1 [Compound 5]
≥ 80%: pest or weed control at 200 ppm [1] | pest or weed control at 200 ppm [2] | pest or weed control at 200 ppm [3] | pest or weed control at 12.5 ppm [4] | pest or weed control at 200 ppm [5] | pest or weed control at 200 ppm [6] | pest or weed control at 200 ppm [7]

COc1c(NC(=O)c2ccccc2C)cccc1C(=O)Nc1c(Br)cc(C(F)(C(F)(F)F)C(F)(F)F)cc1OC(F)F [Compound 35]
≥ 80%: pest or weed control at 200 ppm [1] | pest or weed control at 200 ppm [2] | pest or weed control at 200 ppm [3] | pest or weed control at 200 ppm [5] | pest or weed control at 200 ppm [6] | pest or weed control at 200 ppm [7]

COc1c(NC(=O)c2ccccc2Cl)cccc1C(=O)Nc1c(Br)cc(C(F)(C(F)(F)F)C(F)(F)F)cc1OC(F)F [Compound 37]
≥ 80%: pest or weed control at 200 ppm [1] | pest or weed control at 200 ppm [2] | pest or weed control at 200 ppm [3] | pest or weed control at 200 ppm [5] | pest or weed control at 200 ppm [6] | pest or weed control at 200 ppm [7]

COc1c(NC(=O)c2ccc(F)cc2C)cccc1C(=O)Nc1c(Br)cc(C(F)(C(F)(F)F)C(F)(F)F)cc1OC(F)F [Compound 43]
≥ 80%: pest or weed control at 200 ppm [1] | pest or weed control at 200 ppm [2] | pest or weed control at 200 ppm [3] | pest or weed control at 200 ppm [5] | pest or weed control at 200 ppm [6] | pest or weed control at 200 ppm [7]

O=C(Nc1cccc(C(=O)Nc2c(Cl)cc(C(F)(C(F)(F)F)C(F)(F)F)cc2OC(F)F)c1F)c1ccccc1Cl [Compound 48]
≥ 80%: pest or weed control at 200 ppm [1] | pest or weed control at 200 ppm [2] | pest or weed control at 200 ppm [3] | pest or weed control at 200 ppm [5] | pest or weed control at 200 ppm [6] | pest or weed control at 200 ppm [7]

O=C(Nc1cccc(C(=O)Nc2c(Cl)cc(C(F)(C(F)(F)F)C(F)(F)F)cc2OC(F)F)c1F)c1ccc(F)c(C(F)(F)F)c1 [Compound 62]
≥ 80%: pest or weed control at 200 ppm [2] | pest or weed control at 200 ppm [3] | pest or weed control at 12.5 ppm [4] | pest or weed control at 200 ppm [5] | pest or weed control at 200 ppm [7]

COc1c(NC(=O)c2ccc(F)cc2F)cccc1C(=O)Nc1c(Br)cc(C(F)(C(F)(F)F)C(F)(F)F)cc1OC(F)F [Compound 71]
≥ 80%: pest or weed control at 200 ppm [1] | pest or weed control at 200 ppm [2] | pest or weed control at 200 ppm [3] | pest or weed control at 200 ppm [5] | pest or weed control at 200 ppm [6] | pest or weed control at 200 ppm [7]

O=C(Nc1cccc(C(=O)Nc2c(Cl)cc(C(F)(C(F)(F)F)C(F)(F)F)cc2OC(F)F)c1F)c1ccc(F)cc1Cl [Compound 74]
≥ 80%: pest or weed control at 200 ppm [2] | pest or weed control at 200 ppm [3] | pest or weed control at 12.5 ppm [4] | pest or weed control at 200 ppm [5] | pest or weed control at 200 ppm [6] | pest or weed control at 200 ppm [7]

COc1c(NC(=O)c2ccccc2Cl)cccc1C(=O)Nc1c(Cl)cc(C(F)(C(F)(F)F)C(F)(F)F)cc1OC(F)F [Compound 79]
≥ 80%: pest or weed control at 200 ppm [1] | pest or weed control at 200 ppm [2] | pest or weed control at 200 ppm [3] | pest or weed control at 200 ppm [5] | pest or weed control at 200 ppm [6] | pest or weed control at 200 ppm [7]

COc1c(NC(=O)c2ccccc2)cccc1C(=O)Nc1c(Cl)cc(C(F)(C(F)(F)F)C(F)(F)F)cc1OC(F)F [Compound 92]
≥ 80%: pest or weed control at 200 ppm [1] | pest or weed control at 200 ppm [2] | pest or weed control at 200 ppm [3] | pest or weed control at 200 ppm [5] | pest or weed control at 200 ppm [6] | pest or weed control at 200 ppm [7]

COc1c(NC(=O)c2ccccc2C(F)(F)F)cccc1C(=O)Nc1c(Cl)cc(C(F)(C(F)(F)F)C(F)(F)F)cc1OC(F)F [Compound 94]
≥ 80%: pest or weed control at 200 ppm [1] | pest or weed control at 200 ppm [2] | pest or weed control at 200 ppm [3] | pest or weed control at 200 ppm [5] | pest or weed control at 200 ppm [6] | pest or weed control at 200 ppm [7]

COc1c(NC(=O)c2ccc(F)cc2Cl)cccc1C(=O)Nc1c(Cl)cc(C(F)(C(F)(F)F)C(F)(F)F)cc1OC(F)F [Compound 95]
≥ 80%: pest or weed control at 200 ppm [1] | pest or weed control at 200 ppm [2] | pest or weed control at 200 ppm [3] | pest or weed control at 200 ppm [5] | pest or weed control at 200 ppm [6] | pest or weed control at 200 ppm [7]

COc1c(NC(=O)c2ccc(F)cc2F)cccc1C(=O)Nc1c(Cl)cc(C(F)(C(F)(F)F)C(F)(F)F)cc1OC(F)F [Compound 97]
≥ 80%: pest or weed control at 200 ppm [1] | pest or weed control at 200 ppm [2] | pest or weed control at 200 ppm [3] | pest or weed control at 200 ppm [6] | pest or weed control at 200 ppm [7]

CCN(C(=O)c1ccccc1Cl)c1cccc(C(=O)Nc2c(Cl)cc(C(F)(C(F)(F)F)C(F)(F)F)cc2OC(F)F)c1F [Compound 112]
≥ 80%: pest or weed control at 200 ppm [1] | pest or weed control at 200 ppm [2] | pest or weed control at 200 ppm [3] | pest or weed control at 200 ppm [5] | pest or weed control at 200 ppm [6] | pest or weed control at 200 ppm [7]

CCN(C(=O)c1ccc([N+](=O)[O-])cc1Cl)c1cccc(C(=O)Nc2c(Cl)cc(C(F)(C(F)(F)F)C(F)(F)F)cc2OC(F)F)c1OC [Compound 152]
≥ 80%: pest or weed control at 200 ppm [2] | pest or weed control at 200 ppm [3] | pest or weed control at 12.5 ppm [4] | pest or weed control at 200 ppm [5] | pest or weed control at 200 ppm [6] | pest or weed control at 200 ppm [7]

CCN(C(=O)c1ccccc1OC)c1cccc(C(=O)Nc2c(Cl)cc(C(F)(C(F)(F)F)C(F)(F)F)cc2OC(F)F)c1OC [Compound 154]
≥ 80%: pest or weed control at 200 ppm [2] | pest or weed control at 200 ppm [3] | pest or weed control at 200 ppm [5] | pest or weed control at 200 ppm [6] | pest or weed control at 200 ppm [7]

— patent publication US11445724B2, “Insecticidal compounds” (SYNGENTA PARTICIPATIONS AG, priority 2013, dated 2022)
